Values quoted from earlier work in publication PMC10950972, “Relative bioavailability of fedratinib through various alternative oral administration methods in healthy adults” (Cancer Chemotherapy and Pharmacology, 2023).

What was measured:
[1] = set-up: method as in PMID 34480861; conditions: patients; compared with healthy adults and patients with rheumatoid arthritis; cited from earlier work
[2] = set-up: method as in PMID 15598479; conditions: cited from earlier work

SMILES	PK after solution of crushed tablets via nasogastric tube vs PK previously reported [1]	Differences in bioavailability and PK parameters, intact capsules vs nasogastric administration [2]
CCS(=O)(=O)N1CC(CC#N)(n2cc(-c3ncnc4[nH]ccc34)cn2)C1 [baricitinib]	consistent with PK results previously reported	
COc1cc2ncnc(Nc3ccc(F)c(Cl)c3)c2cc1OCCCN1CCOCC1 [gefitinib]		no clinically significant differences
